Assay results published in patent publication US7763615B2, “Ecteinascidin analogs for use as antitumour agents” (priority 2001, dated 2010).
In brackets after ≈: the same amount, converted by molar mass. Read-outs that look alike come from different tables or passages of the source.

Assays:
A498 = experiment: cells; type: cell-based; conditions: Homo sapiens; for CC50: A498, 48 h, read-out: LC50; for GI50 / IC (TGI): A498, 48 hours exposure, SRB
In short: (§1)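 Human tumour cells seeded at 5×10^3 per well in RPMI 1640 10% FBS, attached 18 h, then exposed 48 h to samples from 10 to 10^−8 μg/ml in DMSO/EtOH/PBS. Growth measured by SRB staining after TCA fixation, OD 490 nm, triplicate wells; GI, TGI and LC derived.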

A549 = experiment: cells; type: cell-based; conditions: Homo sapiens, A549, 48 h; for GI50: read-out: GI50; for IC (TGI): read-out: TGI; for CC50: read-out: LC50, A549, 48 hours exposure, SRB
In short: as §1

DU145 = experiment: cells; type: cell-based; conditions: Homo sapiens, DU-145, 48 h; for GI50 / IC (TGI): DU145, 48 hours exposure, SRB; for CC50: read-out: LC50, DU145, 48 hours exposure, SRB
In short: as §1

HT29 = experiment: cells; type: cell-based; conditions: Homo sapiens, HT-29, 48 h; for GI50 / IC (TGI): HT29, 48 hours exposure, SRB; for CC50: read-out: LC50, HT29, 48 hours exposure, SRB
In short: as §1

MB231 = experiment: cells; type: cell-based; conditions: Homo sapiens; for CC50: read-out: LC50; for IC (TGI): read-out: TGI
In short: as §1

MCF = experiment: cells; type: cell-based; conditions: Homo sapiens; for CC50: read-out: LC50; for IC (TGI): read-out: TGI
In short: as §1

MEL-28 = experiment: cells; type: cell-based; conditions: Homo sapiens, SK-MEL-28, 48 h; for GI50 / IC (TGI): MEL-28, 48 hours exposure, SRB; for CC50: read-out: LC50, MEL-28, 48 hours exposure, SRB
In short: as §1

SW-620 = experiment: cells; type: cell-based; conditions: Homo sapiens; for CC50: read-out: LC50
In short: as §1

[1] = tested on: AML-12, normal mouse liver cells; conditions: 24 h
[2] = tested on: NRK-52E, normal rat kidney cells; conditions: 24 h
[3] = tested on: L8, normal rat skeletal muscle cells; conditions: 24 h
Experimental: (§2) In order to assess the cytotoxicity of the drugs to normal cells, we used 96 well plates plated at a density of 5000 cells per well (except for the FDC-P1 which were plated at 12,000 cells per well) with normal cell lines (ATCC, Table 1) maintained as per the directions of the ATCC: AML-12, normal mouse liver cells; NRK-52E, normal rat kidney cells; L8, normal rat skeletal muscle cells; FDC-P1, normal mouse myelogeous stem cells; and H9c2 (2-1), normal rat cardiac muscle cells. The cells in each plate were permitted to settle overnight before adding the test drug.
(§3) To each well (100 μl medium) 10 μl of drug in media was added at varying concentrations (1×10-10-0.01 mg/ml final concentration) and further incubated overnight at 37° C. with 5% CO2. After 24 h the following assays were performed. All experiments were repeated at least 3 times and were assayed in duplicate.
(§4) MTS assay (CellTiter 96 aqueous) was performed according to the manufacturer's (Promega) directions (for all cell types). Cell viability (mitochondrial activity) is determined via enzymatic conversion of the formazan substrate.

[4] = tested on: FDC-P1, normal mouse myelogeous stem cells; conditions: 24 h
[5] = tested on: H9c2 (2-1), normal rat cardiac muscle cells; conditions: 24 h
Experimental: as §2, §3, §4

[6] = s9, 60 min, 1 μM
physchem [7] = conditions: pH 7.4, log D n-Octanol-Dulbecco's PBS pH 7.4
in vitro = conditions: human, Caco-2
Text: The intestinal epithelium permeability is a critical characteristic that determines the rate and extent of human absorption and ultimately the bioavailability of a drug candidate. Caco-2 permeability assay allows a rapid assessment of membrane permeability and thus helps to rank-order compounds in terms of their absorption potential.
The Caco-2 cell line is a human colon adenocarcinoma cell line that differentiates in culture and resembles the epithelial lining of the human small intestine.
The apparent permeability coefficients (Papp) was determined in the apical-to-basolateral (A-to-B) direction across the cell monolayers (TC-7 sub-clone of the Caco-2) cultured on polycarbonate membrane filters. Compounds were tested at 50 μM with at a final DMSO concentration of 1%. Samples were analyzed by HPLC-MS or HPLC-MS/MS.
The test compound was added to the apical side and the Papp was determined based on the rate of appearance of the test compound in the basolateral side after 2 h-incubation. Two reference compounds, propranolol (highly permeable) and ranitidine (poorly permeable), are tested in each assay as controls.

CYP2D6 = CYP2D6 (Homo sapiens, UniProt P10635); experiment: in vitro; conditions: CYP2D6 (% inhibition)
Experimental: For CYP2D6 inhibition assay, the compound are tested at 10 μM in duplicate with a 0.25% final concentration of both methanol and acetonitrile in presence of the fluorescent substrate AMMC (3-[2-N,N-diethyl-N-methylammonium)ethyl]-7-methoxy-4-methylcoumarin) at the concentration of 1.5 μM). The conversion of the AMMC in AHMC (3-[2-N,N-diethyl-N-methylammonium)ethyl]-7-hydroxy-4-methylcoumarin) is determined spectrofluorimetry after incubation with the enzyme during 450 min at 37° C.
For both assays, the fluorescent intensity measured at t=0 is subtracted from that measured after the appropriate incubation time. The ratio of signal-to-noise is calculated by comparing the fluorescence in incubations containing the test compound to the control samples containing the same solvent vehicle. The percent of control activity is calculated and reported as percent inhibition.

CYP3A4 = CYP3A4 (Homo sapiens, UniProt P08684); experiment: in vitro; conditions: CYP3A4 (% inhibition)
physchem [8] = conditions: pH 7.4, aqueous buffer, Solubility Dulbecco's PBS pH 7.4
(HEPG2) = conditions: human, 24 h, 30 μM
Experimental: The toxic potential of compounds was investigated in vitro using primary human hepatocytes (HEPG2). The compounds were tested at 30 μM in duplicate with a final DMSO concentration of 1%. After incubation during 24 h at 37° C. the cell viability was determined by the conversion of oxided alarmarBlue (resazurin) to reduced alarmarBlue (resorufin). Chlorpromazine was used as reference compound. Results are expressed as a percent of inhibition of control values.

[9] = SW-620, 48 hours exposure, SRB, read-out: GI50

CYP2D6, sequence (P10635 whole entry): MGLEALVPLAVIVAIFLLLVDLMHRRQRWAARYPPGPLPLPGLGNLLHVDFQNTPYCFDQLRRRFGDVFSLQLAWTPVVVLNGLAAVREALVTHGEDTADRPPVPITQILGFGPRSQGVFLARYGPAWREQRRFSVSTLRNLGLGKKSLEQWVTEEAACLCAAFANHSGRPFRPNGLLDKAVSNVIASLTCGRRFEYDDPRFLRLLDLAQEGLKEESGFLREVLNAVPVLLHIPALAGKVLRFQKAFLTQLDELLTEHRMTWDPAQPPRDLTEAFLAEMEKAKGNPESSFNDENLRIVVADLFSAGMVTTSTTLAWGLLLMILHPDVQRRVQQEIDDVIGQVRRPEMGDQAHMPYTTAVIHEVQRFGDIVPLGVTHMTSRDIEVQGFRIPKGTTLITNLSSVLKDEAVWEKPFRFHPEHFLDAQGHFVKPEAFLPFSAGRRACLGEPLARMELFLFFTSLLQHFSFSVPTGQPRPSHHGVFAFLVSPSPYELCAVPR
CYP3A4, sequence (P08684 whole entry): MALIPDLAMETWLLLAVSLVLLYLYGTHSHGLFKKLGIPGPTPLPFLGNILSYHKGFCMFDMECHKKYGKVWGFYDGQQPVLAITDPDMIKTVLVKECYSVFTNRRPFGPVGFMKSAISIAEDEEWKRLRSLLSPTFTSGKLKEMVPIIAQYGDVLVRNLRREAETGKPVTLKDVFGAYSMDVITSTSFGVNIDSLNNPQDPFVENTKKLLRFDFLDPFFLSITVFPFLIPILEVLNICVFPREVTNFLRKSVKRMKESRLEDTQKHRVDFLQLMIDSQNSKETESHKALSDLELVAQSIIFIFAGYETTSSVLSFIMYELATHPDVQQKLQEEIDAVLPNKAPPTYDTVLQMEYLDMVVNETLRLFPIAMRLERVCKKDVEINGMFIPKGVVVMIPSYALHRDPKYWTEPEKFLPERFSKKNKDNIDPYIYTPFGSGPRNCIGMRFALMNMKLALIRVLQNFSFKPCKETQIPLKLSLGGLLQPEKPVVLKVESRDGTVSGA

Work on COc1ccc2[nH]c3c(c2c1)CCN[C@]31CS[C@@H]2c3c(OC(C)=O)c(C)c4c(c3[C@H](COCC1=O)N1C2[C@H]2c3c(cc(C)c(OC)c3O)C[C@@H]([C@@H]1O)N2C)OCO4 (stereo partly shown) [Compound 27] yielded a CC50 (A498) of 1.27 nM, a GI50 (A498) of 0.255 nM and an IC (TGI) (A498) of 0.51 nM. The GI50 (A549; A549, 48 hours exposure, SRB) was 0.255 nM, the IC (TGI) (A549; A549, 48 hours exposure, SRB) was 0.892 nM and the CC50 (A549) was 6.37 nM. For the same compound, the GI50 (DU145) was 0.0255 nM, the IC (TGI) (DU145) was 0.0892 nM and the CC50 (DU145) was 3.82 nM. For the same compound, the GI50 (HT29) was 0.255 nM, the IC (TGI) (HT29) was 0.764 nM and the CC50 (HT29) was 1.15 nM. The CC50 (MB231; 48 h) was 12.7 nM, the GI50 (MB231; MB231, 48 hours exposure, SRB) was 0.255 nM and the IC (TGI) (MB231; MB231, 48 hours exposure, SRB) was 6.37 nM. It also gave a CC50 (MCF; 48 h) of 11.5 nM, an IC (TGI) (MCF; 48 h) of 1.27 nM and a GI50 (MCF; MCF, 48 hours exposure, SRB) of 0.255 nM. For the same compound, the GI50 (MEL-28) was 0.255 nM, the IC (TGI) (MEL-28) was 0.637 nM and the CC50 (MEL-28) was 1.27 nM. The CC50 (SW-620; SW-620, 48 h) was 1.15 nM, the IC (TGI) (SW-620; SW-620, 48 hours exposure, SRB) was 0.637 nM and the GI50 (SW-620; [9]) was 0.255 nM. The Liver [1] was 1.48E−08, the Kidney [2] was 1.01E−08 and the Skeletal [3] was 1.54E−08. The Myelo [4] was 1.75E−08, the Heart [5] was 9.93E−08 and the “Human Liver S9 Metabolic Stability (% remaining)” value [6] was 7 % remaining. For the same compound, the logD at 60 min (physchem [7]) was over 5, the Papp A→B at 2 h, 50 μM (in vitro) was under 1.18 ×10⁻⁶ cm/s and the inhibition at 450 min, 10 µM (CYP2D6) was 13%. For the same compound, the inhibition at 30 min, 10 µM (CYP3A4) was 53% and the solubility (physchem [8]) was 2.99 µM (≈ 2.39 µg/mL).
Work on COc1c(C)cc2c(c1O)[C@@H]1C3[C@@H]4SC[C@]5(NCCc6c5[nH]c5ccc(O)cc65)C(=O)COC[C@@H](c5c6c(c(C)c(OC(C)=O)c54)OCO6)N3[C@@H](O)[C@H](C2)N1C (stereo partly shown) [Compound 31] yielded a CC50 (A498) of 13 nM, a GI50 (A498) of 2.59 nM and an IC (TGI) (A498) of 6.49 nM. It also gave a GI50 (A549; A549, 48 hours exposure, SRB) of 2.59 nM, an IC (TGI) (A549; A549, 48 hours exposure, SRB) of 5.19 nM and a CC50 (A549) of 38.9 nM. For the same compound, the GI50 (DU145) was 1.3 nM, the IC (TGI) (DU145) was 3.89 nM and the CC50 (DU145) was 9.08 nM. The GI50 (HT29) was 3.89 nM, the IC (TGI) (HT29) was 7.78 nM and the CC50 (HT29) was 13 nM. The CC50 (MB231; 48 h) was 13 nM, the GI50 (MB231; MB231, 48 hours exposure, SRB) was 1.3 nM and the IC (TGI) (MB231; MB231, 48 hours exposure, SRB) was 5.19 nM. The CC50 (MCF; 48 h) was 11.7 nM, the GI50 (MCF; MCF, 48 hours exposure, SRB) was 2.59 nM and the IC (TGI) (MCF; MCF, 48 hours exposure, SRB) was 5.19 nM. The GI50 (MEL-28) was 2.59 nM, the IC (TGI) (MEL-28) was 3.89 nM and the CC50 (MEL-28) was 10.4 nM. The CC50 (SW-620; SW-620, 48 h) was 11.7 nM, the IC (TGI) (SW-620; SW-620, 48 hours exposure, SRB) was 3.89 nM and the GI50 (SW-620; [9]) was 2.59 nM. For the same compound, the Liver [1] was 1.89E−08, the Kidney [2] was 4.27E−08 and the Skeletal [3] was 1.35E−08. The Myelo [4] was 3.18E−08, the Heart [5] was 6.65E−08 and the “Human Liver S9 Metabolic Stability (% remaining)” value [6] was 17 % remaining. The “Cell Viability (% inhibition)” value ((HEPG2)) was 22 % inhibition, the logD at 60 min (physchem [7]) was 3.61 and the Papp A→B at 2 h, 50 μM (in vitro) was under 0.32 ×10⁻⁶ cm/s. The inhibition at 30 min, 10 µM (CYP3A4) was 84% and the solubility (physchem [8]) was 18.3 µM (≈ 14.3 µg/mL).
COc1c(C)cc2c(c1O)[C@@H]1C3[C@@H]4SC[C@]5(C(=O)COC[C@@H](c6c7c(c(C)c(OC(C)=O)c64)OCO7)N3[C@@H](O)[C@H](C2)N1C)c1[nH]c2ccc(O)cc2c1CCN5C (stereo partly shown) [Compound 33] gave a CC50 (A498) of 1.27 nM, a GI50 (A498) of 0.255 nM and an IC (TGI) (A498) of 0.51 nM. For the same compound, the GI50 (A549; A549, 48 hours exposure, SRB) was 0.382 nM, the CC50 (A549) was 5.1 nM and the IC (TGI) (A549) was 1.27 nM. It also gave a GI50 (DU145) of 0.382 nM, an IC (TGI) (DU145) of 0.892 nM and a CC50 (DU145) of 3.82 nM. The GI50 (HT29) was 0.255 nM, the IC (TGI) (HT29) was 0.764 nM and the CC50 (HT29) was 1.15 nM. It also gave a CC50 (MB231; 48 h) of 12.7 nM, an IC (TGI) (MB231; 48 h) of 1.27 nM and a GI50 (MB231; MB231, 48 hours exposure, SRB) of 0.255 nM. For the same compound, the CC50 (MCF; 48 h) was 11.5 nM, the GI50 (MCF; MCF, 48 hours exposure, SRB) was 1.02 nM and the IC (TGI) (MCF; MCF, 48 hours exposure, SRB) was 2.55 nM. The GI50 (MEL-28) was 0.255 nM, the IC (TGI) (MEL-28) was 0.637 nM and the CC50 (MEL-28) was 1.15 nM. It also gave a CC50 (SW-620; SW-620, 48 h) of 10.2 nM, an IC (TGI) (SW-620; SW-620, 48 hours exposure, SRB) of 1.15 nM and a GI50 (SW-620; [9]) of 0.255 nM. For the same compound, the Liver [1] was 1.05E−08, the Kidney [2] was 7.78E−09 and the Skeletal [3] was 1.41E−08. The Myelo [4] was 1.92E−08, the Heart [5] was 1.27E−06 and the “Human Liver S9 Metabolic Stability (% remaining)” value [6] was 10 % remaining. For the same compound, the “Cell Viability (% inhibition)” value ((HEPG2)) was 32 % inhibition, the logD at 60 min (physchem [7]) was 3.5 and the Papp A→B at 2 h, 50 μM (in vitro) was 7.77 ×10⁻⁶ cm/s. It also gave an inhibition at 450 min, 10 µM (CYP2D6) of 28%, an inhibition at 30 min, 10 µM (CYP3A4) of 84% and a solubility (physchem [8]) of 68.9 µM (≈ 55.1 µg/mL).
Work on COc1ccc2c3c([nH]c2c1)[C@@]1(CS[C@@H]2c4c(OC(C)=O)c(C)c5c(c4[C@H](COCC1=O)N1C2[C@H]2c4c(cc(C)c(OC)c4O)C[C@@H]([C@@H]1O)N2C)OCO5)NCC3 (stereo partly shown) [Compound 34] yielded a CC50 (A498) of 63.7 nM, a GI50 (A498) of 3.82 nM and an IC (TGI) (A498) of 12.7 nM. For the same compound, the GI50 (A549; A549, 48 hours exposure, SRB) was 5.1 nM, the IC (TGI) (A549; A549, 48 hours exposure, SRB) was 25.5 nM and the CC50 (A549) was 89.2 nM. For the same compound, the GI50 (DU145) was 2.55 nM, the IC (TGI) (DU145) was 3.82 nM and the CC50 (DU145) was 10.2 nM. The GI50 (HT29) was 7.64 nM, the IC (TGI) (HT29) was 2.54 nM and the CC50 (HT29) was 11.5 nM. For the same compound, the CC50 (MB231; 48 h) was 127 nM, the IC (TGI) (MB231; 48 h) was 10.2 nM and the GI50 (MB231; MB231, 48 hours exposure, SRB) was 3.82 nM. For the same compound, the CC50 (MCF; 48 h) was 127 nM, the GI50 (MCF; MCF, 48 hours exposure, SRB) was 5.1 nM and the IC (TGI) (MCF; MCF, 48 hours exposure, SRB) was 25.5 nM. For the same compound, the GI50 (MEL-28) was 3.82 nM, the IC (TGI) (MEL-28) was 12.7 nM and the CC50 (MEL-28) was 63.7 nM. The GI50 (SW-620; SW-620, 48 h) was 10.2 nM, the CC50 (SW-620; SW-620, 48 h) was 102 nM and the IC (TGI) (SW-620; SW-620, 48 hours exposure, SRB) was 38.2 nM. The Liver [1] was 2.55E−06, the Kidney [2] was 2.74E−07 and the Skeletal [3] was 1.48E−08. For the same compound, the Myelo [4] was 1.15E−05, the Heart [5] was 4.96E−07 and the “Human Liver S9 Metabolic Stability (% remaining)” value [6] was 24 % remaining. For the same compound, the “Cell Viability (% inhibition)” value ((HEPG2)) was 45 % inhibition, the logD at 60 min (physchem [7]) was over 5 and the Papp A→B at 2 h, 50 μM (in vitro) was 5 ×10⁻⁶ cm/s. For the same compound, the inhibition at 450 min, 10 µM (CYP2D6) was 28%, the inhibition at 30 min, 10 µM (CYP3A4) was 80% and the solubility (physchem [8]) was 17.6 µM (≈ 14.1 µg/mL).
